The text below walks through data of patent publication EP4293019A1, “4-SUBSTITUTED (1H-BENZO[D]IMIDAZOL-2-YL)-1H-PYRAZOLES AS BUB1 INHIBITORS USEFUL FOR TREATING CANCERS” (Netherlands Translational Research Center Holding B.V., priority 2022, dated 2023).

Structures are written as SMILES.

One experiment addresses T1, hBUB1 (Homo sapiens, UniProt O43683).
T1 construct: purchased Carna Biosciences 05-187
Put plainly: hBUB1 kinase activity assay (biochemical fluorescence polarization assay, IMAP). As to conditions: BUB1/BUB3 3.26 nM, ATP 15 µM, BUB1/BUB3 substrate 75 nM; N=2, n=2; read-out: hBUB1 pIC50 (converted). How it is done: This protocol describes how the Kinase Activity Assay was performed to determine pIC50 values of compounds of general formula (I) against hBUB1.
Assays were performed in 384-well plates (Greiner, black, flat bottom, 781076) by sequential addition (final concentrations are indicated) of inhibitor (5 µL, 0.3 nM - 1 µM or 3 nM - 10 µM), BUB1/BUB3 (5 µL, 3.26 nM, Carna Biosciences (05-187), lot: 15CBS-0644 D), ATP (5 µL, 15 µM) and BUB1/BUB3 substrate (5 µL, 75 nM, Carna Biosciences (05-187MSSU)), all as 4x working solutions. The final concentration of DMSO was 1%. Assay reactions were stopped by addition of IMAP progressive binding reagent (20 µL, 1200x diluted, Molecular Devices (R8155), lot: 3117896). Each assay included the following controls: (i) a background control (treated with vehicle instead of inhibitor and BUB1/BUB3 substrate), (ii) MIN controls (treated with 5 µM BAY1816032 (MedChem Express) as inhibitor, used as 0% BUB1 activity) and (iii) MAX controls (treated with vehicle instead of inhibitor, used as 100% BUB1 activity). All inhibitors were tested in two separate assays and all inhibitor concentrations were tested in duplicate per assay (N=2, n=2).
For each assay, assay buffer (AB) was freshly prepared and consisted of 20 mM HEPES (prepared by diluting 1 M HEPES, pH 7.2), 5 mM MgCl2, 0.01% Tween-20 and 1 mM DTT. Stocks of inhibitors (in DMSO) were diluted in AB to obtain 4x working solutions (4% DMSO) and 5 µL was added to the assay plate. BUB1/BUB3 (3.26 µM (486 µg/mL) in storage buffer) was diluted in AB to obtain 13.0 nM of which 5 µL was added to all wells of the assay plate. The assay plate was centrifuged (1 min, 200 g) and incubated at RT for 30 min. ATP (4 mM in MilliQ) was diluted in AB to obtain 60 µM of which 5 µL was added to each well. BUB1/BUB3 substrate (1 mM) was diluted in 20 mM HEPES (prepared by diluting 1 M HEPES (pH 7.2) in MilliQ) to obtain 80 µM (this solution was freshly prepared every assay) and further diluted in AB to obtain 300 nM after which 5 µL was added to each well of the assay plate except for background control wells. The assay plate was centrifuged (1 min, 200 g) and incubated at RT in the dark for 180 min. IMAP progressive binding buffer A (5x) and IMAP progressive binding buffer B (5x) were mixed in a ratio to obtain 30% buffer A and 70% buffer B, which was subsequently diluted 5x in MilliQ. IMAP progressive binding reagent was diluted 600x in aforementioned mixture of buffer A and B (to obtain a 2x working solution) of which 20 µL was added to each well of the assay plate. The assay plate was centrifuged (1 min, 200 g) and incubated at RT in the dark for 90 min. Fluorescence polarization was measured on a CLARIOstar plate reader using the following settings: (i) optic settings → excitation = F: 482-16, dichroic = F: LP 504, emission = F: 530-40, (ii) optic = top optic, (iii) speed/precision = maximum precision, (iv) focus adjustment was performed for every assay and (v) gain adjustment was done by setting the target mP value to 35 mP for one of the MIN control wells. Data was normalized between MIN and MAX controls and data was plotted using GraphPad Prism 8.0 using "Nonlinear regression (curve fit)" and "log(inhibitor) vs. normalized response - Variable slope" to determine pIC50 values.
Inhibition is indicated as pIC50 ("-" = not measured). Compounds having an activity designated as "A" provided an pIC50 ≥ 7.0 (IC50 ≤100 nM); compounds having an activity designated as "B" provided an 6.3 ≤ pIC50 < 7.0 (100 nM<IC50 ≤ 500 nM); compounds having an activity designated as "C" provided an 6.0 ≤ pIC50 < 6.3 (500 nM < IC50 ≤ 1 µM); compounds having an activity designated as "D" provided an 6.0 < pIC50 ≤ 5.0 (1 µM < IC50 ≤ 10 µM); and compounds having an activity designated as "E" provided an pIC50 < 5.0 (IC50 >10 µM).
Background: Fluorescence polarisation rises when a labelled molecule tumbles more slowly, as on binding a larger partner.

Another experiment deals with U2OS cells. Description: Cellular proliferation assay (SRB proliferation assay). Format: cell-based. The conditions noted are these: Homo sapiens, 72 h treatment, SRB staining, N=2, n=3. On the procedure: This protocol describes how the Cellular Proliferation Assay was performed to determine pIC50 values of compounds of general formula (I) against U2OS cells.
U2OS (human osteosarcoma) cells were purchased at ATCC and were tested on regular basis for mycoplasma contamination. Cultures were discarded after 2-3 months of use. Cells were cultured at 37°C under 7% CO2 in DMEM (Sigma Aldrich, D6546) supplemented with GlutaMAX (2 mM, ThermoFisher), 10% (v/v) heat-inactivated newborn calf serum (Seradigm), penicillin and streptomycin (200 µg/mL each, Duchefa) (complete medium). Medium was refreshed every 2-3 days and cells were passaged by trypsinization twice a week at 80-90% confluence. Cell viability was assessed by Trypan Blue exclusion and cell quantification using a TC20™ Automated Cell Counter (Bio-Rad).
Assays were performed in 96-well plates (Greiner, Cellstar, 655180) by seeding (day 0), treatment (day 1) and subsequent incubation for 72 h. Cells were fixed, stained and staining was subsequently dissolved after which absorbance was measured. Each assay included the following controls: (i) a background control (to which no cells were added), (ii) t0 controls (separate assay plate in which cells were fixed on day 1, used as 0% proliferation), (iii) nontreated controls (present in each assay plate, treated with vehicle and used as 100% proliferation). Cells were treated with different concentrations of indicated inhibitor. All inhibitors were tested in two separate assays and all inhibitor concentrations were tested in triplicate per assay (N=2, n=3).
For each assay, U2OS cells from 10 cm dishes were seeded into 96-well plates (3,000 cells/well) and subsequently incubated overnight to allow for cell adherence. Stocks of inhibitor and vehicle (all in DMSO) were diluted in complete medium to obtain 2x working solutions (1% DMSO). Cell medium was replaced by fresh complete medium (50 µL), treatment was started by addition of the 2x working solutions (50 µL) and plates were incubated at 37°C for 72 h. Cell medium was replaced by fresh serum free medium (100 µL) and cells were fixed by addition of 30 µL 50% (w/v) aq. trichloroacetic acid after which the plates were incubated at 4°C for 60 min. Wells were emptied by shaking the plates upside down after which wells were washed three times with demineralized water and air-dried overnight. To each well, 60 µL of SRB solution (0.4% (w/v) in 1% aq. acetic acid) was added and plates were incubated for 30 min. The excess SRB was removed and the wells were washed three times with 1% aq. acetic acid and air-dried overnight. Bound SRB was redissolved by addition of 150 µL 10 mM TRIS (free-base) and absorbance was measured at 540 nm on a CLARIOstar plate reader. Data was normalized between t0 and nontreated controls and plotted using GraphPad Prism 8.0 using "Nonlinear regression (curve fit)" and "log(inhibitor) vs. normalized response - Variable slope" to determine pIC50 values.
Inhibition is indicated as pIC50 ("-" = not measured). Compounds having an activity designated as "A" provided an pIC50 ≥ 6.0 (IC50 ≤1 µM); compounds having an activity designated as "B" provided an 5.3 ≤ pIC50 < 6.0 (1 µM<IC50 ≤ 5 µM); compounds having an activity designated as "C" provided an 5.0 ≤ pIC50 < 5.3 (5 µM < IC50 ≤ 10 µM); compounds having an activity designated as "D" provided an 5.0 < pIC50 ≤ 4.7 (10 µM < IC50 ≤ 20 µM); and compounds having an activity designated as "E" provided an pIC50 < 4.7 (IC50 >20 µM).
For orientation: In SRB staining, fixed cells bind dye roughly in proportion to their protein.

T1 sequence (O43683 whole entry): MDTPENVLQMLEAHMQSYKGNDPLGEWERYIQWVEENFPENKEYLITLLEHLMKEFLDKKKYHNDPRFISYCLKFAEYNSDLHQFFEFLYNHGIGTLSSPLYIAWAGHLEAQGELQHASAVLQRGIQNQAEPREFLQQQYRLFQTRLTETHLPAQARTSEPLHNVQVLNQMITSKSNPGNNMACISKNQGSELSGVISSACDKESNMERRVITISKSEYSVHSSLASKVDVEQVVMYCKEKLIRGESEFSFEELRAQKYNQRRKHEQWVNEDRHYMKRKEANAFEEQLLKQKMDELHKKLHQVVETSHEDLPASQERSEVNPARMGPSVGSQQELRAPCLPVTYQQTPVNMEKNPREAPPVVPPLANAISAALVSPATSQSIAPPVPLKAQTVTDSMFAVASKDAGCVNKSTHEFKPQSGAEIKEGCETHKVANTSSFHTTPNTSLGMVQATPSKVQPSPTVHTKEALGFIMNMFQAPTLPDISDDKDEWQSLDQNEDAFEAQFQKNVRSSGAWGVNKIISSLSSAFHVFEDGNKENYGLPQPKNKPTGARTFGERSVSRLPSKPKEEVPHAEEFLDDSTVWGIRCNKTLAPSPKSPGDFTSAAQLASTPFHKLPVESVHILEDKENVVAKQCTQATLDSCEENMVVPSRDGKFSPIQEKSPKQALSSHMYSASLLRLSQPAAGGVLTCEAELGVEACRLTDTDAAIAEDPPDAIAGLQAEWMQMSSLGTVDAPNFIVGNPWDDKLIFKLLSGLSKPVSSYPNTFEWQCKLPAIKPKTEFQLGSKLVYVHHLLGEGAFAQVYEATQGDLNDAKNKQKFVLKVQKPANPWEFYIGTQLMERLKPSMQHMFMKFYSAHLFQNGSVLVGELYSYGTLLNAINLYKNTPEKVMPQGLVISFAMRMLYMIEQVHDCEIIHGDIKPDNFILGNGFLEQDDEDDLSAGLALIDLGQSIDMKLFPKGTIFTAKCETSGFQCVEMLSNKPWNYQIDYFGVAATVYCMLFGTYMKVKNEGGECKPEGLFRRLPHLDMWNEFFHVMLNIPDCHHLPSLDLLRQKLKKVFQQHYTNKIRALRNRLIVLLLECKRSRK
T1 sequence (O43684 whole entry partner): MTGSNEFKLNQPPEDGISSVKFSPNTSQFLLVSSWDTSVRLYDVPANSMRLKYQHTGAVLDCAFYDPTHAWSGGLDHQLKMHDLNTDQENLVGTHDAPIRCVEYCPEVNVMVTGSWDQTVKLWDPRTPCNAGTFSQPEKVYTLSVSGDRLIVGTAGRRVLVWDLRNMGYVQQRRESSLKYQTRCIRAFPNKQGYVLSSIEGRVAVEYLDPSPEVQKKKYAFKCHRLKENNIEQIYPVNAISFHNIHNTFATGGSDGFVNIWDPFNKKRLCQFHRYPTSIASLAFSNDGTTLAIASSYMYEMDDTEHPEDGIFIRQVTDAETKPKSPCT

Regarding `c1ccc(-c2nccc(Nc3c[nH]nc3-c3nc4cc(CN5CCOCC5)ccc4[nH]3)n2)cc1` [Compound 16, N-(3-(5-(morpholinomethyl)-1H-benzo[d]imidazol-2-yl)-1H-pyrazol-4-yl)-2-phenylpyrimidin-4-amine], the values for the IC50 at hBUB1 and with U2OS cells were 100 to 501 nM and 1000 to 5010 nM, respectively.
Taken in the same sequence, the figures for `c1ccc(Oc2nccc(Nc3c[nH]nc3-c3nc4cc(CN5CCOCC5)ccc4[nH]3)n2)cc1` [Compound 17, N-(3-(5-(morpholinomethyl)-1H-benzo[d]imidazol-2-yl)-1H-pyrazol-4-yl)-2-phenoxypyrimidin-4-amine] were 100 to 501 nM and 5010 to 10000 nM.
Taken in the same sequence, the figures for `c1ccc(COc2nccc(Nc3c[nH]nc3-c3nc4cc(CN5CCOCC5)ccc4[nH]3)n2)cc1` [Compound 18, 2-(benzyloxy)-N-(3-(5-(morpholinomethyl)-1H-benzo[d]imidazol-2-yl)-1H-pyrazol-4-yl)pyrimidin-4-amine] were 100 to 501 nM and 1000 to 5010 nM.
The like results for `Clc1cccc(-c2nccc(Nc3c[nH]nc3-c3nc4cc(CN5CCOCC5)ccc4[nH]3)n2)c1` [Compound 41, 2-(3-Chlorophenyl)-N-(3-(5-(morpholinomethyl)-1H-benzo[d]imidazol-2-yl)-1H-pyrazol-4-yl)pyrimidin-4-amine] were, in that order, no more than 100 nM and 1000 to 5010 nM.
As to `C#Cc1cccc(-c2nccc(Nc3c[nH]nc3-c3nc4cc(CN5CCOCC5)ccc4[nH]3)n2)c1` [Compound 42, 2-(3-Ethynylphenyl)-N-(3-(5-(morpholinomethyl)-1H-benzo[d]imidazol-2-yl)-1H-pyrazol-4-yl)pyrimidin-4-amine], the IC50 is no more than 100 nM on hBUB1 and 1000 to 5010 nM in the experiment on U2OS cells.
Take `FC(F)(F)c1cccc(-c2nccc(Nc3c[nH]nc3-c3nc4cc(CN5CCOCC5)ccc4[nH]3)n2)c1` [Compound 43, N-(3-(5-(Morpholinomethyl)-1H-benzo[d]imidazol-2-yl)-1H-pyrazol-4-yl)-2-(3-(trifluoromethyl)phenyl)pyrimidin-4-amine]: the IC50 is 501 to 1000 nM on hBUB1 and 1000 to 5010 nM in the experiment on U2OS cells.
Regarding `N#Cc1cccc(-c2nccc(Nc3c[nH]nc3-c3nc4cc(CN5CCOCC5)ccc4[nH]3)n2)c1` [Compound 44, 3-(4-((3-(5-(Morpholinomethyl)-1H-benzo[d]imidazol-2-yl)-1H-pyrazol-4-yl)amino)pyrimidin-2-yl)benzonitrile], the results for the IC50 at hBUB1 and in the experiment on U2OS cells were 501 to 1000 nM and 1000 to 5010 nM, respectively.
In the case of `Fc1c(Cl)cccc1-c1nccc(Nc2c[nH]nc2-c2nc3cc(CN4CCOCC4)ccc3[nH]2)n1` [Compound 45, 2-(3-Chloro-2-fluorophenyl)-N-(3-(5-(morpholinomethyl)-1H-benzo[d]imidazol-2-yl)-1H-pyrazol-4-yl)pyrimidin-4-amine], the results for the IC50 at hBUB1 and in the experiment on U2OS cells were no more than 100 nM and 1000 to 5010 nM, respectively.
`C#Cc1cccc(-c2nccc(Nc3c[nH]nc3-c3nc4cc(CN5CCOCC5)ccc4[nH]3)n2)c1F` [Compound 46, 2-(3-Ethynyl-2-fluorophenyl)-N-(3-(5-(morpholinomethyl)-1H-benzo[d]imidazol-2-yl)-1H-pyrazol-4-yl)pyrimidin-4-amine]: the values for the IC50 on hBUB1 and in the experiment on U2OS cells were no more than 100 nM and no more than 1000 nM, respectively.
As for `Fc1ccc(Cl)cc1-c1nccc(Nc2c[nH]nc2-c2nc3cc(CN4CCOCC4)ccc3[nH]2)n1` [Compound 47, 2-(5-Chloro-2-fluorophenyl)-N-(3-(5-(morpholinomethyl)-1H-benzo[d]imidazol-2-yl)-1H-pyrazol-4-yl)pyrimidin-4-amine], the IC50 on hBUB1 was no more than 100 nM; with U2OS cells, 1000 to 5010 nM.
With `COc1cnc(-c2cccc(Cl)c2)nc1Nc1c[nH]nc1-c1nc2cc(CN3CCOCC3)ccc2[nH]1` [Compound 51, 2-(3-Chlorophenyl)-5-methoxy-N-(3-(5-(morpholinomethyl)-1H-benzo[d]imidazol-2-yl)-1H-pyrazol-4-yl)pyrimidin-4-amine], the IC50 was no more than 100 nM on hBUB1 and no more than 1000 nM in the experiment with U2OS cells.
Taken in the same sequence, the figures for `C#Cc1cccc(-c2ncc(OC)c(Nc3c[nH]nc3-c3nc4cc(CN5CCOCC5)ccc4[nH]3)n2)c1` [Compound 52, 2-(3-Ethynylphenyl)-5-methoxy-N-(3-(5-(morpholinomethyl)-1H-benzo[d]imidazol-2-yl)-1H-pyrazol-4-yl)pyrimidin-4-amine] were no more than 100 nM and no more than 1000 nM.
The like results for `COc1cnc(-c2cccc(C(F)(F)F)c2)nc1Nc1c[nH]nc1-c1nc2cc(CN3CCOCC3)ccc2[nH]1` [Compound 53, 5-Methoxy-N-(3-(5-(morpholinomethyl)-1H-benzo[d]imidazol-2-yl)-1H-pyrazol-4-yl)-2-(3-(trifluoromethyl)phenyl)pyrimidin-4-amine] were, in that order, 100 to 501 nM and no more than 1000 nM.
